Measured values from patent US20240383875A1, “Benzimidazole Pyridine Derivatives” (Hoffmann-La Roche Inc., priority 2022, published 2024).

Assays:
Format in all cases: biochemical
SIK2 = SIK2 (Homo sapiens, UniProt Q9H0K1); test: Enzymatic activity assay SIK2, RapidFire mass spectrometry (phosphorylation of CHK-peptide); settings: RapidFire MS, inhibition of SIK2; read-out: SIK2 RF IC50
Method in brief: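 Read-out is the summed phospho-species fraction of CHK-peptide by RapidFire mass spectrometry, normalized between DMSO and 1 μM YKL-05-099. The reaction used 0.5 nM SIK2, 100 μM ATP and 10 μM peptide solutions in HEPES pH 7.0/10 mM magnesium acetate for 45 min at ambient temperature.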

SIK1 = SIK1 (Homo sapiens, UniProt P57059); test: Enzymatic activity assay SIK1, RapidFire mass spectrometry (phosphorylation of CHK-peptide); settings: RapidFire MS, inhibition of SIK1; read-out: SIK1 RF IC50
Method in brief: (§1)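 Human SIK1/2/3, 5/0.5/1.5 nM; 12.5 mM HEPES pH 7.0, 10 mM Mg acetate, 0.005% BSA. 30 min cpd pre-inc, + CHK-peptide (10 μM soln) + ATP (100 μM soln), 45 min RT. Formic acid stop; RF-MS phospho ratio; IC50.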

SIK3 = SIK3 (Homo sapiens, UniProt Q9Y2K2); test: Enzymatic activity assay SIK3, RapidFire mass spectrometry (phosphorylation of CHK-peptide); settings: RapidFire MS, inhibition of SIK3; read-out: SIK3 RF IC50
Method in brief: as §1

SIK1, sequence (P57059 whole entry): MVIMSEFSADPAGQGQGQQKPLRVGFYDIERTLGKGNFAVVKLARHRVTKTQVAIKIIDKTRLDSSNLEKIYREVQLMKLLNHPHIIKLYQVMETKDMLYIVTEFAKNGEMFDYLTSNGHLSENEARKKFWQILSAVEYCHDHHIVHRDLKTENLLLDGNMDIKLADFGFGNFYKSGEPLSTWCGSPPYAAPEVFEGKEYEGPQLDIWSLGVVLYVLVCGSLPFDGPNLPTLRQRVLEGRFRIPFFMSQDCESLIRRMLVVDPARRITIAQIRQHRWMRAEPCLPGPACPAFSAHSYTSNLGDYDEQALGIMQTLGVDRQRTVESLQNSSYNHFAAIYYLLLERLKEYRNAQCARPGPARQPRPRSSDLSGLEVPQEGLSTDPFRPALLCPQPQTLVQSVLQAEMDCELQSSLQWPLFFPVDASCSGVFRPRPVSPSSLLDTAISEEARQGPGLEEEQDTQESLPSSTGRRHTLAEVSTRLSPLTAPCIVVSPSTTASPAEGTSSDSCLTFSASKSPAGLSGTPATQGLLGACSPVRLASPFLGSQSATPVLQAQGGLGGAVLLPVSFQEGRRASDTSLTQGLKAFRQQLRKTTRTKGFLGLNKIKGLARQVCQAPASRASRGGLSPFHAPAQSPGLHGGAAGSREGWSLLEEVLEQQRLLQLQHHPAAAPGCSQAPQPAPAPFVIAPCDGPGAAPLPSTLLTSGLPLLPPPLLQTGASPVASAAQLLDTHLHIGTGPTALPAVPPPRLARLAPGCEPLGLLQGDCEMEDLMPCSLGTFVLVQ
SIK2, sequence (Q9H0K1 whole entry): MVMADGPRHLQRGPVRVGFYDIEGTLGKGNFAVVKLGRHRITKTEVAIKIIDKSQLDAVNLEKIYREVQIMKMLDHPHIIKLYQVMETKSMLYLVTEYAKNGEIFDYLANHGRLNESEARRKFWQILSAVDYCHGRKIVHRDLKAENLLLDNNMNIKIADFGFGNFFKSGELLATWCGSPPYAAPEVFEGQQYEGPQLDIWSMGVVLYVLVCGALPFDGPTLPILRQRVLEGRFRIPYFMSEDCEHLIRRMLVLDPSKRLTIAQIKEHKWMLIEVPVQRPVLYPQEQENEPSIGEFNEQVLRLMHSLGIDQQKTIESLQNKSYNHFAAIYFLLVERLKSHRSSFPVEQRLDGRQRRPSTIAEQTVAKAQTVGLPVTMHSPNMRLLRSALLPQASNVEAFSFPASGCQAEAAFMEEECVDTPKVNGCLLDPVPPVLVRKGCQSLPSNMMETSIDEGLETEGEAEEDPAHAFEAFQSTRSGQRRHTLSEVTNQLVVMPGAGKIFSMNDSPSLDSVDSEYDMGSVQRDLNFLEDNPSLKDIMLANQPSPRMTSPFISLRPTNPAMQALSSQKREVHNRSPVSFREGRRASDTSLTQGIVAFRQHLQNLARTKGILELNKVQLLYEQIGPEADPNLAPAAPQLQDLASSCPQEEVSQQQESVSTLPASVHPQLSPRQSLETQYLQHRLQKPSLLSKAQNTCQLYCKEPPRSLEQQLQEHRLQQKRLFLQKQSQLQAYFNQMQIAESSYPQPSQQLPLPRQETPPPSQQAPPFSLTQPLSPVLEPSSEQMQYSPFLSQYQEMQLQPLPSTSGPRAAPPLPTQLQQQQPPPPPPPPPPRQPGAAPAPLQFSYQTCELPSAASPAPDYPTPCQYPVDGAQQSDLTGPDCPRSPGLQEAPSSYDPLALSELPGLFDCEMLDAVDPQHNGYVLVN
SIK3, sequence (Q9Y2K2 whole entry): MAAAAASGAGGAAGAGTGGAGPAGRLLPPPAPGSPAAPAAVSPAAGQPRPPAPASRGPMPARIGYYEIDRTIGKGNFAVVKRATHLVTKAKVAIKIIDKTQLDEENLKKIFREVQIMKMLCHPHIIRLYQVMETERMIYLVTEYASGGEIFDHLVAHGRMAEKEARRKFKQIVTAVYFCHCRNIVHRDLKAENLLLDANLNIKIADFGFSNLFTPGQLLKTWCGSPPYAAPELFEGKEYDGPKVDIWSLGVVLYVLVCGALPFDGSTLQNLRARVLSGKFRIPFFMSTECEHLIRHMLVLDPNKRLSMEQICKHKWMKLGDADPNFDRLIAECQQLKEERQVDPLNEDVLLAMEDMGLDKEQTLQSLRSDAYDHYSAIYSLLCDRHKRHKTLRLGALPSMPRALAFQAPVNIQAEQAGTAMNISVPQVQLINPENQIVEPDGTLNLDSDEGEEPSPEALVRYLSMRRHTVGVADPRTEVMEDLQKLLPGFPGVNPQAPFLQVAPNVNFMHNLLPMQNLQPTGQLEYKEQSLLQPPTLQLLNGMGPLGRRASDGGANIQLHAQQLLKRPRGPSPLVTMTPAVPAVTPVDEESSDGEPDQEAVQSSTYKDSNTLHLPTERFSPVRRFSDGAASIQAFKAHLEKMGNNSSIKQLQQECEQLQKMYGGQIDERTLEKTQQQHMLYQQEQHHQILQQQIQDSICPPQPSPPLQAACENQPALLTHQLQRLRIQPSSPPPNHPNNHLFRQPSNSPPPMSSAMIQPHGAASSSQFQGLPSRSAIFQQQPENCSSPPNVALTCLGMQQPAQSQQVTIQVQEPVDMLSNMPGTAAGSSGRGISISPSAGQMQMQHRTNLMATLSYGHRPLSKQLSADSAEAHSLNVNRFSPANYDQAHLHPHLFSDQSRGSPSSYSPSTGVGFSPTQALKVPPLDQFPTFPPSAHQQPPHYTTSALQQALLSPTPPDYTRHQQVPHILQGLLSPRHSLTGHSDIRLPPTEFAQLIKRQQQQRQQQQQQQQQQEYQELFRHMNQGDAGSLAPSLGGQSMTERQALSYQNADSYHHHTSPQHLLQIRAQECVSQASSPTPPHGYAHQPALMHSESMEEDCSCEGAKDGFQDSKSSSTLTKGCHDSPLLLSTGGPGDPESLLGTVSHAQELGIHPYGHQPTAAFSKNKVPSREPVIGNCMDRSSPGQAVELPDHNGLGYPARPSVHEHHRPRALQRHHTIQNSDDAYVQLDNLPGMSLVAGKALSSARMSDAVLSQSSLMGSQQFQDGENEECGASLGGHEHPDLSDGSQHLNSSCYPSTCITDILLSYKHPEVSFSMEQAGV

SMILES	IC50 (SIK2)	IC50 (SIK1)	IC50 (SIK3)
Cc1ncc(Nc2ccc3c(c2)ncn3-c2ccc(C(C)O)c(-n3nc(C#N)cc3C)n2)cn1 (stereo not drawn) [Example 86, 1-[3-(1-Hydroxyethyl)-6-[5-[(2-methylpyrimidin-5-yl)amino]benzimidazol-1-yl]-2-pyridyl]-5-methyl-pyrazole-3-carbonitrile]	6 nM	62 nM	1.5 nM
Cc1ccc(Nc2ccc3c(c2)ncn3-c2ccc(C(C)O)c(-n3nc(C(F)F)c(C)c3C)n2)nn1 (stereo not drawn) [Example 369, 1-[2-[3-(difluoromethyl)-4,5-dimethyl-pyrazol-1-yl]-6-[5-[(6-methylpyridazin-3-yl)amino]benzimidazol-1-yl]-3-pyridyl]ethanol]	8.2 nM	1320 nM	4.1 nM
Cc1ccc(Nc2cc3ncn(-c4ccc(C(C)O)c(-n5nc(C#N)cc5C)n4)c3cc2OC2CCNC2)nn1 (stereo not drawn) [Example 192, 1-[3-(1-Hydroxyethyl)-6-[5-[(6-methylpyridazin-3-yl)amino]-6-pyrrolidin-3-yloxy-benzimidazol-1-yl]-2-pyridyl]-5-methyl-pyrazole-3-carbonitrile]	3.1 nM	196 nM	4 nM
Cc1cc(C#N)nn1-c1nc(-n2cnc3cc(CN4CCCCC4=O)ccc32)ccc1C(C)O (stereo not drawn) [Example 216, 1-[3-(1-Hydroxyethyl)-6-[5-[(2-oxo-1-piperidyl)methyl]benzimidazol-1-yl]-2-pyridyl]-5-methyl-pyrazole-3-carbonitrile]	2240 nM	10800 nM	476 nM
Cc1ccc(Nc2ccc3c(c2)ncn3-c2ccc(C(C)O)c(-c3nn(CC(F)(F)F)cc3C)n2)nn1 (stereo not drawn) [Example 349, 1-[6-[5-[(6-methylpyridazin-3-yl)amino]benzimidazol-1-yl]-2-[4-methyl-1-(2,2,2-trifluoroethyl)pyrazol-3-yl]-3-pyridyl]ethanol]	5.3 nM	432 nM	6.6 nM
Cc1ccc(Nc2cc3ncn(-c4ccc(C(C)O)c(-n5nc(C#N)cc5C)n4)c3cc2OCCN(C)C)nn1 (stereo not drawn) [Example 189, 1-[6-[6-[2-(Dimethylamino)ethoxy]-5-[(6-methylpyridazin-3-yl)amino]benzimidazol-1-yl]-3-(1-hydroxyethyl)-2-pyridyl]-5-methyl-pyrazole-3-carbonitrile]	3.9 nM	186 nM	4.7 nM
Cc1cc(C#N)nn1-c1nc(-n2cnc3cc(N4CC[C@H]5CNC(=O)[C@H]54)ccc32)ccc1C(C)O (stereo partly drawn) [Example 330, 1-[6-[5-[(3aS,6aS)-6-oxo-2,3,3a,4,5,6a-hexahydropyrrolo[2,3-c]pyrrol-1-yl]benzimidazol-1-yl]-3-(1-hydroxyethyl)-2-pyridyl]-5-methylpyrazole-3-carbonitrile]	26 nM	113 nM	51.3 nM
Cc1nnc(Nc2ccc3c(c2)ncn3-c2ccc(C(C)O)c(-n3nc(C#N)cc3C)n2)o1 (stereo not drawn) [Example 103, 1-[3-(1-Hydroxyethyl)-6-[5-[(5-methyl-1,3,4-oxadiazol-2-yl)amino]benzimidazol-1-yl]-2-pyridyl]-5-methyl-pyrazole-3-carbonitrile]	28.8 nM	35 nM	17.5 nM
Cc1cc(C#N)nn1-c1nc(-n2cnc3cc(Br)c(N4CCN(C5COC5)CC4)cc32)ccc1C(C)O (stereo not drawn) [Example 190, 1-[6-[5-Bromo-6-[4-(oxetan-3-yl)piperazino]benzimidazol-1-yl]-3-(1-hydroxyethyl)-2-pyridyl]-5-methyl-pyrazole-3-carbonitrile]	50.8 nM	84 nM	382 nM
Cc1ccc(Nc2ccc3c(c2)ncn3-c2ccc([C@H](C)O)c(-n3nc(C(F)F)cc3C)n2)nn1 [Example 229, (1S)-1-[2-[3-(Difluoromethyl)-5-methyl-pyrazol-1-yl]-6-[5-[(6-methylpyridazin-3-yl)amino]benzimidazol-1-yl]-3-pyridyl]ethanol]	1.5 nM	223 nM	0.4 nM
COc1cc2ncn(-c3ccc(CO)c(NCCCCCO)n3)c2cc1OC [Example 32, 5-((6-(5,6-Dimethoxy-1H-benzo[d]imidazol-1-yl)-3-(hydroxymethyl)pyridin-2-yl)amino)pentan-1-ol]	259 nM	373 nM	1400 nM
COc1cc2c(cc1Nc1cc3c(nn1)CCOC3)ncn2-c1ccc(C(C)O)c(-n2nc(C#N)cc2C)n1 (stereo not drawn) [Example 394, 1-[6-[5-(7,8-dihydro-5~{H}-pyrano[4,3-c]pyridazin-3-ylamino)-6-methoxy-benzimidazol-1-yl]-3-(1-hydroxyethyl)-2-pyridyl]-5-methyl-pyrazole-3-carbonitrile]	0.3 nM	13 nM	0.6 nM
COc1cc2ncn(-c3ccc([C@@H](C)O)c(-c4ccc(F)cc4OC)n3)c2cc1OC [Example 22, (R)-1-(6-(5,6-Dimethoxy-1H-benzo[d]imidazol-1-yl)-2-(4-fluoro-2-methoxyphenyl)pyridin-3-yl)ethan-1-ol]	849 nM	970 nM	4480 nM
Cc1ccc(Nc2cc3ncn(-c4ccc([C@H](C)O)c(-n5nc(OC(F)F)cc5C)n4)c3cc2F)nn1 [Example 374, (1S)-1-[2-[3-(difluoromethoxy)-5-methyl-pyrazol-1-yl]-6-[6-fluoro-5-[(6-methylpyridazin-3-yl)amino]benzimidazol-1-yl]-3-pyridyl]ethanol]	0.3 nM	88 nM	0.4 nM
Cc1ccc(Nc2cc3c(cc2F)ncn3-c2ccc(C(C)O)c(-n3nc(Cl)cc3C)n2)nn1 (stereo not drawn) [Example 354, 1-[2-(3-chloro-5-methyl-pyrazol-1-yl)-6-[5-fluoro-6-[(6-methylpyridazin-3-yl)amino]benzimidazol-1-yl]-3-pyridyl]ethanol]	78.6 nM	225 nM	75.9 nM
CCc1cc(C(F)F)nn1-c1nc(-n2cnc3cc(Nc4ccc(C)nn4)ccc32)ccc1C(C)O (stereo not drawn) [Example 370, 1-[2-[3-(difluoromethyl)-5-ethyl-pyrazol-1-yl]-6-[5-[(6-methylpyridazin-3-yl)amino]benzimidazol-1-yl]-3-pyridyl]ethanol]	7.1 nM	496 nM	2 nM
Cc1cc(C#N)nn1-c1nc(-n2cnc3cc(Nc4ccn(C)c(=O)n4)ccc32)ccc1C(C)O (stereo not drawn) [Example 146, 1-[3-(1-Hydroxyethyl)-6-[5-[(2-keto-1-methyl-pyrimidin-4-yl)amino]benzimidazol-1-yl]-2-pyridyl]-5-methyl-pyrazole-3-carbonitrile]	34.6 nM	227 nM	7.8 nM
Cc1ccc(Nc2cc3ncn(-c4ccc(C(C)O)c(-c5cn(CC(F)(F)F)nc5C)n4)c3cc2F)nn1 (stereo not drawn) [Example 302, 1-[6-[6-fluoro-5-[(6-methylpyridazin-3-yl)amino]benzimidazol-1-yl]-2-[3-methyl-1-(2,2,2-trifluoroethyl)pyrazol-4-yl]-3-pyridyl]ethanol]	0.7 nM	409 nM	1.1 nM
Cc1ccc(Nc2ccc3c(c2)ncn3-c2ccc(C(C)O)c(-c3cnn4c3C(=O)NCC4)n2)nn1 (stereo not drawn) [Example 165, 3-[3-(1-Hydroxyethyl)-6-[5-[(6-methylpyridazin-3-yl)amino]benzimidazol-1-yl]-2-pyridyl]-6,7-dihydro-5H-pyrazolo[1,5-a]pyrazin-4-one]	359 nM	13300 nM	95.5 nM
Cc1ccc(Nc2ccc3c(c2)ncn3-c2ccc([C@@H](C)O)c(-c3cn(CC(F)(F)F)nc3C)n2)nn1 [Example 251, (1R)-1-[6-[5-[(6-Methylpyridazin-3-yl)amino]benzimidazol-1-yl]-2-[3-methyl-1-(2,2,2-trifluoroethyl)pyrazol-4-yl]-3-pyridyl]ethanol]	0.3 nM	63 nM	0.4 nM
Cc1cnc(Nc2ccc3c(c2)ncn3-c2ccc(C(C)O)c(-n3nc(C#N)cc3C)n2)cn1 (stereo not drawn) [Example 82, 1-[3-(1-Hydroxyethyl)-6-[5-[(5-methylpyrazin-2-yl)amino]benzimidazol-1-yl]-2-pyridyl]-5-methyl-pyrazole-3-carbonitrile]	2.2 nM	5 nM	2.4 nM
Cc1ccc(Nc2ccc3c(c2)ncn3-c2ccc(C(C)O)c(-c3cn(CC(C)(F)F)nc3C)n2)nn1 (stereo not drawn) [Example 281, 1-[2-[1-(2,2-difluoropropyl)-3-methyl-pyrazol-4-yl]-6-[5-[(6-methylpyridazin-3-yl)amino]benzimidazol-1-yl]-3-pyridyl]ethanol]	0.6 nM	46 nM	1.2 nM
Cc1ccc(Nc2ccc3ncn(-c4ccc([C@H](C)O)c(-n5nc(C#N)cc5C)n4)c3c2)nn1 [Example 280, 1-[3-[(1S)-1-hydroxyethyl]-6-[6-[(6-methylpyridazin-3-yl)amino]benzimidazol-1-yl]-2-pyridyl]-5-methyl-pyrazole-3-carbonitrile]	26.3 nM	39 nM	149 nM
Cc1ccc(Nc2ccc3ncn(-c4ccc(C(C)O)c(N5CCC(C)(C#N)C5)n4)c3c2)nn1 (stereo not drawn) [Example 120, 1-[3-(1-Hydroxyethyl)-6-[6-[(6-methylpyridazin-3-yl)amino]benzimidazol-1-yl]-2-pyridyl]-3-methyl-pyrrolidine-3-carbonitrile]	1310 nM	2210 nM	307 nM
Cc1cc(C#N)nn1-c1nc(-n2cnc3cc(CN4CCCS4(=O)=O)ccc32)ccc1C(C)O (stereo not drawn) [Example 201, 1-[6-[5-[(1,1-Dioxo-1,2-thiazolidin-2-yl)methyl]benzimidazol-1-yl]-3-(1-hydroxyethyl)-2-pyridyl]-5-methyl-pyrazole-3-carbonitrile]	62.1 nM	111 nM	321 nM
